# Measurements reported in patent publication US4611056A, “Benzo[A]phenothiazines and hydro-derivatives” (Merck Frosst Canada, Inc., priority 1985, dated 1986).
# Where a name gives a salt, the structure may show the parent alone.
# Legend:
# [1] = system: duration of dyspnoea in asthmatic rats (egg albumin challenge); assay: Asthmatic Rat Assay; type: in vivo; settings: for ED50 (Asthmatic Rat Assay): p.o.
# [2] = system: asthmatic rat; assay: certain biological tests, amorphous versus crystalline material; type: in vivo
# Source text: Representative results comparing the two forms of the compound are shown in the accompanying Table IV (where doses are in mg/kg, p.o.).
# [3] = NMR study of equilibration of conformational isomers in solution; type: physicochemical; settings: upon dissolution at room temperature (DMF-d7)
# Description: In particular, the methyl group of the acetyl unit appears as four sharp singlets, of approximately equal intensity, at 1.89, 1.91, 1.99 and 2.28 parts per million (ppm).
# In another experiment, a sample of the crystalline compound was dissolved in DMF-d7, pre-cooled to -50° C., and the NMR spectrum taken quickly at -50° C. […] As the sample was warmed, these two signals coalesced to a singlet at about 30° C. (1.91 ppm); at about 80° C., a second singlet appeared (2.04 ppm), and at 170° C., these two singlets began to coalesce.
# In another NMR study of the compound, five samples were dissolved in DMF-d7 at 25° C., and then stored at -78° C., after being held for 0, 5, 15, 30 and 60 minutes at 25° C.
# As a result of the x-ray and NMR studies, it is concluded that there is a single conformational isomer of compound XVIII present in the crystalline form, and that this isomer equilibrated, upon dissolution at room temperature, over a period of approximately one hour, to a mixture of at least four observable conformational isomers which may possibly be represented as follows: [drawing 50]
# [4] = system: LTB4 formation in rat peritoneal PMN leukocytes; assay: Rat Peritoneal Polymorphonuclear (PMN) Leukocyte Assay (inhibition of LTB4 formation); type: cell-based; settings: for IC50: Leukocyte, rat peritoneal PMN, 10 μM A-23187, 2 min preincubation at 37° C.
# Description: Rats under ether anesthesia are injected (i.p.) with 8 ml of a suspension of sodium cascinate (6 grams in ca. 50 ml water). […] The rats are sacrificed (CO2) and the cells from the peritoneal cavity are recovered by lavage with 20 ml of buffer (Eagles MEM containing 30 mM HEPES adjusted to pH 7.4 with NaOH). The cells are pelleted (350×g, 5 min.), resuspended in buffer with vigorous shaking, filtered through lens paper, recentrifuged and finally suspended in buffer at a concentration of 10 cells/ml. A 500 μl aliquot of PMN suspension and test compound are preincubated for 2 minutes at 37° C., followed by the addition of 10 μM A-23187. The suspension is stirred for an additional 4 minutes then bioassayed for LTB4 content by adding an aliquot to a second 500 μl portion of the PMN at 37° C. The LTB4 produced in the first incubation causes aggregation of the second PMN, which is measured as a change in light transmission. […] The percentage inhibition of LTB4 formation is calculated from the ration of transmission change in the sample to the transmission change in the compound-free control.
# [5] = system: Platelet activating factor (PAF)-induced hyperalgesia in the rat paw; assay: PAF-Induced Hyperalgesia Assay; type: in vivo, rat (female Sprague-Dawley)
# Description: Female Sprague-Dawley rats, 35-40 g were fasted overnight. Platelet activating factor, PAF, (L-lecithin B-acetyl O-alkyl) 1 μg/0.1 ml was given by subplantar injection in the rat paw. The compounds to be evaluated were homogenized in Aqueous Vehicle (0.9% benzyl alcohol, 0.5% Tween 80 and 0.4% methylcellulose) and administered orally in a volume of 0.1 ml, 30 minutes prior to PAF.
# Animals were tested 1, 2, 3 and 4 hours after PAF administration. The vocalization threshold, defined as the pressure (mmHg) needed to evoke a squeak response, was recorded for both the injected and contralateral paw. No animal was subjected to pressure greater than 60 mmHg. Hyperalgesia is defined as a decrease in vocalization threshold as compared to a normal paw. Percent inhibition of hyperalgesia was calculated as the proportion of animals with vocalization thresholds greater than 200% of controls.
# [6] = 0.5 mg/kg p.o., vehicle 0.4% Tween 80/0.5% Methocel
# [7] = 1.5 mg/kg p.o., vehicle 0.4% Tween 80/0.5% Methocel
# [8] = 2 mg/kg p.o., vehicle 0.4% Tween 80/0.5% Methocel
# [9] = vehicle 0.4% Tween 80/0.5% Methocel
# [10] = Rattus norvegicus, po, 5 mg/kg p.o., Table III, read-out: Asth. Rat % Inhibition
# [11] = Rattus norvegicus, po, 1.5 mg/kg p.o., Table III, read-out: Asth. Rat % Inhibition
smiles,measurement,setting,value
"CC(=O)OC(C)OC(=O)N1c2ccccc2Sc2cc(O)c3ccccc3c21 (centres unmarked) [Compound XVIII, Amorphous (4 Conformers), 5-hydroxy-12-(1-acetoxyethoxycarbonyl)-12H-benzo[a]phenothiazine]",% Inhibition (Asthmatic Rat Assay),[1]; [6],48%
same,% Inhibition (Asthmatic Rat Assay),"[1]; 0.5 mg/kg p.o., vehicle 1% Methocel",36%
same,% Inhibition (Asthmatic Rat Assay),[1]; [7],52%
same,% Inhibition (Asthmatic Rat Assay),"[1]; 1.5 mg/kg p.o., vehicle 1% Methocel",59%
same,% Inhibition (Asthmatic Rat Assay),[1]; [8],57%
same,ED50 (Asthmatic Rat Assay),[1]; [9],1.0 mg/kg
same,ED50 (Asthmatic Rat Assay),[1]; vehicle 1% Methocel,1.0 mg/kg
same,biological activity over the crystalline material,[2],advantageous biological activity over the crystalline material
"CC(=O)OC(C)OC(=O)N1c2ccccc2Sc2cc(O)c3ccccc3c21 (centres unmarked) [Compound XVIII, Crystalline (1 Conformer)] [5-hydroxy-12-(1-acetoxyethoxycarbonyl)-12H-benzo[a]phenothiazine]",% Inhibition (Asthmatic Rat Assay),[1]; [6],19%
same,% Inhibition (Asthmatic Rat Assay),[1]; [7],49%
same,% Inhibition (Asthmatic Rat Assay),[1]; [8],61%
same,% Inhibition (Asthmatic Rat Assay),"[1]; 2 mg/kg p.o., vehicle 1% Methocel",28%
same,% Inhibition (Asthmatic Rat Assay),"[1]; 5 mg/kg p.o., vehicle 0.4% Tween 80/0.5% Methocel",81%
same,ED50 (Asthmatic Rat Assay),[1]; [9],1.5 mg/kg
same,period of equilibration of the single conformational isomer to a mixture of at least four conformational isomers,[3],approximately one hour
"CC(=O)Oc1cc2c(c3ccccc13)N(C(C)=O)c1ccccc1S2 [aromatic, Ac, Ac, S, 5-Acetoxy-12-acetyl-12H-benzo[a]phenothiazine]",inhibition in vivo at 5 mg/kg,[1]; [10],47%
"CC(=O)N1c2ccccc2Sc2cc(O)c3ccccc3c21 [aromatic, Ac, H, S, 12-acetyl-5-hydroxy-12H-benzo[a]phenothiazine]",IC50,[4],1000 to 5000 µg/mL
"COc1cc2c(c3ccccc13)N(C(C)=O)c1ccccc1S2 [aromatic, Ac, Me, S, 12-Acetyl-5-methoxy-12H-benzo[a]phenothiazine]",IC50,[4],5000 µg/mL
"CC(=O)Oc1cc2c(c3ccccc13)Nc1ccccc1O2 [aromatic, H, Ac, O, 5-Acetoxy-12H-benzo[a]phenoxazine]",inhibition in vivo at 5 mg/kg,[1]; [10],44%
"CC(=O)Oc1cc2c(c3ccccc13)Nc1ccccc1S2 [aromatic, H, Ac, S, 5-acetoxy-12H-benzo[a]phenothiazine]",IC50,[4],25 to 50 µg/mL
same,ED50,"[1]; Rattus norvegicus, po, Table III, read-out: Asth. Rat ED50",4 mg/kg
same,ED50,"[5]; Rattus norvegicus, Platelet, po",0.145 mg/kg
"CC(=O)Oc1cc2c(c3ccccc13)Nc1ccccc1S2(=O)=O [aromatic, H, Ac, SO2, 5-Acetoxy-12H-benzo[a]phenothiazine-7,7-dioxide]",inhibition in vivo at 5 mg/kg,[1]; [10],42%
"CC(C)(C)C(=O)Oc1cc2c(c3ccccc13)Nc1ccccc1S2 [aromatic, H, COC(CH3)3, S, 5-Trimethylacetoxy-12H-benzo[a]phenothiazine]",inhibition in vivo at 5 mg/kg,[1]; [10],54%
"NCC(=O)Oc1cc2c(c3ccccc13)Nc1ccccc1S2 [aromatic, H, COCH2 NH2 .HCl, S, 5-aminoacetoxy-12H-benzo[a]phenothiazine-hydrochloride salt]",inhibition in vivo at 1.5 mg/kg,[1]; [11],21%
same,inhibition in vivo at 3 mg/kg,"[1]; Rattus norvegicus, po, 3 mg/kg p.o., Table III, read-out: Asth. Rat % Inhibition",44%
"O=C(Oc1cc2c(c3ccccc13)Nc1ccccc1S2)c1ccccc1 [aromatic, H, COPh, S, 5-Benzoyloxy-12H-benzo[a]phenothiazine]",inhibition in vivo at 5 mg/kg,[1]; [10],18%
"Oc1cc2c(c3ccccc13)Nc1ccccc1S2 [aromatic, H, H, S, 5-hydroxy-12H-benzo[a]phenothiazine]",IC50,[4],20 to 100 µg/mL
same,inhibition in vivo at 1.5 mg/kg,[1]; [11],54%
"O=S1(=O)c2ccccc2Nc2c1cc(O)c1ccccc21 [aromatic, H, H, SO2, 5-Hydroxy-12H-benzo[a]phenothiazine-7,7-dioxide]",inhibition in vivo at 5 mg/kg,[1]; [10],67%
"CCOP(=O)(OCC)Oc1cc2c(c3ccccc13)Nc1ccccc1S2 [aromatic, H, PO(OEt)2, S, Diethyl 12H-benzo[a]phenothiazin-5-yl phosphate]",PMN IC50,[4],200 to 1000 µg/mL
"CC(=O)Oc1cc2c(c3ccccc13)N(C)c1ccccc1S2 [aromatic, Me, Ac, S, 5-acetoxy-12-methyl-12H-benzo[a]phenothiazine]",IC50,[4],50 µg/mL
same,PAF Induced Hyperalgesia % Inhibition,[5]; 1 mg/kg p.o.,30-60%
"COc1cc2c(c3ccccc13)N(C)c1ccccc1S2 [aromatic, Me, Me, S, 5-methoxy-12-methyl-12H-benzo[a]phenothiazine]",IC50,[4],5000 µg/mL
same,PAF Induced Hyperalgesia % Inhibition,[5]; 1 mg/kg p.o.,40%
same,PAF Induced Hyperalgesia % Inhibition,[5]; 3 mg/kg p.o.,80%
"CC(=O)OC(C)OC(=O)N1c2ccccc2Sc2cc(O)c3ccccc3c21 (centres unmarked) [aromatic, drawing 52, H, S, 5-hydroxy-12-(1-acetoxyethoxycarbonyl)-12H-benzo[a]phenothiazine]",inhibition in vivo at 1.5 mg/kg,[1]; [11],49%
same,PAF Induced Hyperalgesia % Inhibition,[5]; 3 mg/kg p.o.,60%
